{"source": "PubChem BioAssay AID1259409", "about": "(Chemical Carcinogenesis Research Information System (CCRIS), 2018)", "origin": "cited, not measured here", "system": "rodent chemically induced tumor inhibition, incidence and multiplicity", "assay": "CCRIS tumor inhibitor studies", "details": "Route [Inhibitor]: ORAL, Promoter: NONE USED"}
{"smiles": "CCNC(=O)/C=C(C)/C=C/C=C(C)/C=C/C1=C(C)CCCC1(C)C", "values": [{"measurement": "tumour outcome (control, treated, inhibition, significance)", "setting": "Carcinogen: 1,2-DIMETHYLHYDRAZINE, 540-73-8, Dose [Inhibitor]: 2 MMOL/KG DIET DAILY STARTING 12 D AFTER CARCINOGEN TREATMENT THROUGH ABOUT 8 MO AFTER CARCINOGEN DOSE (STUDY DURATION:, Species: RAT, Strain/Sex: F344/MALE, Target Tissue: Type of Lesion: COLON: ADENOCARCINOMA, Dose [Carcinogen]: 150 MG/KG BW ONCE", "value": "10/39 (26%), 6/30 (20%), 23%, not significant"}, {"measurement": "tumour outcome (control, treated, inhibition, significance)", "setting": "Carcinogen: 1,2-DIMETHYLHYDRAZINE, 540-73-8, Dose [Inhibitor]: 2 MMOL/KG DIET DAILY STARTING 12 D AFTER CARCINOGEN TREATMENT THROUGH ABOUT 8 MO AFTER CARCINOGEN DOSE (STUDY DURATION:, Species: RAT, Strain/Sex: F344/MALE, Target Tissue: Type of Lesion: COLON: ADENOMA, Dose [Carcinogen]: 150 MG/KG BW ONCE", "value": "23/39 (59%), 15/30 (50%), 15%, not significant"}, {"measurement": "tumour outcome (control, treated, inhibition, significance)", "setting": "Carcinogen: N-(4-(5-NITRO-2-FURYL)-2-THIAZOLYL)FORMAMIDE, 24554-26-5, Dose [Inhibitor]: 327 MG/KG DIET DAILY FOR 39 WK STARTING ONE WK FOLLOWING THE TERMINATION OF CARCINOGEN ADMINISTRATION (STUDY DURATION: 5, Species: RAT, Strain/Sex: F344/FEMALE, Target Tissue: Type of Lesion: URINARY BLADDER: CARCINOMA, Dose [Carcinogen]: 2 G/KG IN DIET DAILY FOR 10 WK", "value": "105/200 (53%), 63/100 (63%), -19%, p 0.0843"}, {"measurement": "tumour outcome (control, treated, inhibition, significance)", "setting": "Carcinogen: N-(4-(5-NITRO-2-FURYL)-2-THIAZOLYL)FORMAMIDE, 24554-26-5, Dose [Inhibitor]: 327 MG/KG DIET DAILY FOR 39 WK STARTING ONE WK FOLLOWING THE TERMINATION OF CARCINOGEN ADMINISTRATION (STUDY DURATION: 5, Species: RAT, Strain/Sex: F344/FEMALE, Target Tissue: Type of Lesion: URINARY BLADDER: PAPILLOMA, Dose [Carcinogen]: 2 G/KG IN DIET DAILY FOR 10 WK", "value": "15/200 (8%), 1/100 (1%), 88%, p 0.0182"}, {"measurement": "tumour outcome (control, treated, inhibition, significance)", "setting": "Carcinogen: N-(4-(5-NITRO-2-FURYL)-2-THIAZOLYL)FORMAMIDE, 24554-26-5, Dose [Inhibitor]: 327 MG/KG/D IN DIET FOR 39 WK STARTING 1 WK POST CARCINOGEN DOSE TREATMENT (STUDY DURATION: 50 WK), Species: RAT, Strain/Sex: F344/FEMALE, Target Tissue: Type of Lesion: URINARY BLADDER: PAPILLOMA, Dose [Carcinogen]: 2 G/KG/D IN DIET FOR 10 WK", "value": "15/200 (8%), 1/100 (1%), 87%, p=0.0182"}, {"measurement": "tumour outcome (control, treated, inhibition, significance)", "setting": "Carcinogen: N-(4-(5-NITRO-2-FURYL)-2-THIAZOLYL)FORMAMIDE, 24554-26-5, Dose [Inhibitor]: 327 MG/KG/D IN DIET FOR 39 WK STARTING 1 WK POST CARCINOGEN TREATMENT (STUDY DURATION: 50 WK), Species: RAT, Strain/Sex: F344/FEMALE, Target Tissue: Type of Lesion: URINARY BLADDER: CARCINOMA, Dose [Carcinogen]: 2 G/KG/D IN DIET FOR 10 WK", "value": "105/200 (53%), 63/100 (63%), -19%, p=0.0843"}, {"measurement": "tumour outcome (control, treated, inhibition, significance)", "setting": "Carcinogen: N-(4-(5-NITRO-2-FURYL)-2-THIAZOLYL)FORMAMIDE, 24554-26-5, Dose [Inhibitor]: 654 MG/KG DIET DAILY FOR 39 WK STARTING ONE WK FOLLOWING THE TERMINATION OF CARCINOGEN ADMINISTRATION (STUDY DURATION: 5, Species: RAT, Strain/Sex: F344/FEMALE, Target Tissue: Type of Lesion: URINARY BLADDER: CARCINOMA, Dose [Carcinogen]: 2 G/KG IN DIET DAILY FOR 10 WK", "value": "105/200 (53%), 78/100 (78%), -47%, p 0.00002"}, {"measurement": "tumour outcome (control, treated, inhibition, significance)", "setting": "Carcinogen: N-(4-(5-NITRO-2-FURYL)-2-THIAZOLYL)FORMAMIDE, 24554-26-5, Dose [Inhibitor]: 654 MG/KG DIET DAILY FOR 39 WK STARTING ONE WK FOLLOWING THE TERMINATION OF CARCINOGEN ADMINISTRATION (STUDY DURATION: 5, Species: RAT, Strain/Sex: F344/FEMALE, Target Tissue: Type of Lesion: URINARY BLADDER: PAPILLOMA, Dose [Carcinogen]: 2 G/KG IN DIET DAILY FOR 10 WK", "value": "15/200 (8%), 12/100 (12%), -50%, p 0.1989"}, {"measurement": "tumour outcome (control, treated, inhibition, significance)", "setting": "Carcinogen: N-(4-(5-NITRO-2-FURYL)-2-THIAZOLYL)FORMAMIDE, 24554-26-5, Dose [Inhibitor]: 654 MG/KG IN DIET FOR 39 WK STARTING 1 WK POST CARCINOGEN TREATMENT (STUDY DURATION: 50 WK), Species: RAT, Strain/Sex: F344/FEMALE, Target Tissue: Type of Lesion: URINARY BLADDER: PAPILLOMA, Dose [Carcinogen]: 2 G/KG/D IN DIET FOR 10 WK", "value": "15/200 (7.5%), 12/100 (12%), -60%, p=0.1989"}, {"measurement": "tumour outcome (control, treated, inhibition, significance)", "setting": "Carcinogen: N-(4-(5-NITRO-2-FURYL)-2-THIAZOLYL)FORMAMIDE, 24554-26-5, Dose [Inhibitor]: 654 MG/KG/D IN DIET FOR 39 WK STARTING 1 WK POST CARCINOGEN TREATMENT (STUDY DURATION: 50 WK), Species: RAT, Strain/Sex: F344/FEMALE, Target Tissue: Type of Lesion: URINARY BLADDER: CARCINOMA, Dose [Carcinogen]: 2 G/KG/D IN DIET FOR 10 WK", "value": "105/200 (53%), 78/100 (78%), -47%, p=0.00002"}, {"measurement": "tumour outcome (control, treated, inhibition, significance)", "setting": "Carcinogen: N-BUTYL-N-(4-HYDROXYBUTYL)NITROSAMINE, 3817-11-6, Dose [Inhibitor]: 0.5 MMOL/KG DIET DAILY FOR 16 WK STARTING 7 D AFTER FINAL CARCINOGEN DOSE (STUDY DURATION: 6 MO), Species: MOUSE, Strain/Sex: B6D2F1/MALE, Target Tissue: Type of Lesion: URINARY BLADDER: CARCINOMA, Dose [Carcinogen]: 5 OR 10 MG 2/WK FOR 9 WK", "value": "36/97 (37%), 25/76 (33%), 11%, not significant"}, {"measurement": "tumour outcome (control, treated, inhibition, significance)", "setting": "Carcinogen: N-BUTYL-N-(4-HYDROXYBUTYL)NITROSAMINE, 3817-11-6, Dose [Inhibitor]: 1 MMOL/KG DIET DAILY FOR 16 WK STARTING 7 D AFTER FINAL CARCINOGEN DOSE (STUDY DURATION: 6 MO), Species: MOUSE, Strain/Sex: B6D2F1/MALE, Target Tissue: Type of Lesion: URINARY BLADDER: CARCINOMA, Dose [Carcinogen]: 5 OR 10 MG 2/WK FOR 9 WK", "value": "36/97 (37%), 16/75 (21%), 43%, p<0.025"}, {"measurement": "tumour outcome (control, treated, inhibition, significance)", "setting": "Carcinogen: N-BUTYL-N-(4-HYDROXYBUTYL)NITROSAMINE, 3817-11-6, Dose [Inhibitor]: 1.5 MMOL/KG DIET DAILY FOR 153 D STARTING ONE WK AFTER THE FINAL CARCINOGEN DOSE (STUDY DURATION: 210 D), Species: MOUSE, Strain/Sex: BDF1/MALE, Target Tissue: Type of Lesion: URINARY BLADDER: TRANSITIONAL CELL CARCINOMA, Dose [Carcinogen]: 7.5 MG 1/WK FOR 8 WK", "value": "35/99 (35%), 21/99 (21%), 40%, p<0.05"}, {"measurement": "tumour outcome (control, treated, inhibition, significance)", "setting": "Carcinogen: N-BUTYL-N-(4-HYDROXYBUTYL)NITROSAMINE, 3817-11-6, Dose [Inhibitor]: 1.5 MMOL/KG IN DIET FOR 153 D STARTING 1 WK AFTER LAST CARCINOGEN DOSE (STUDY DURATION: 210 D), Species: MOUSE, Strain/Sex: DBF1/MALE, Target Tissue: Type of Lesion: URINARY BLADDER: TRANSITIONAL CELL CARCINOMA, Dose [Carcinogen]: 7.5 MG 1/WK FOR 8 WK", "value": "35/99 (35%), 21/99 (21%), 40%, p<0.05"}, {"measurement": "tumour outcome (control, treated, inhibition, significance)", "setting": "Carcinogen: N-BUTYL-N-(4-HYDROXYBUTYL)NITROSAMINE, 3817-11-6, Dose [Inhibitor]: 2 MMOL/KG DIET DAILY FOR 17 WK STARTING 7 D AFTER FINAL CARCINOGEN DOSE (STUDY DURATION: 6 MO), Species: RAT, Strain/Sex: F344/MALE, Target Tissue: Type of Lesion: URINARY BLADDER: TRANSITIONAL CELL CARCINOMA, Dose [Carcinogen]: 200 MG 2/WK FOR 8 WK", "value": "55/60 (92%), 25/30 (83%), 10%, not significant"}, {"measurement": "tumour outcome (control, treated, inhibition, significance)", "setting": "Carcinogen: N-BUTYL-N-(4-HYDROXYBUTYL)NITROSAMINE, 3817-11-6, Dose [Inhibitor]: 2 MMOL/KG DIET DAILY FOR 19 WK STARTING 7 D AFTER FINAL CARCINOGEN DOSE (STUDY DURATION: 6 MO), Species: RAT, Strain/Sex: F344/FEMALE, Target Tissue: Type of Lesion: URINARY BLADDER: TRANSITIONAL CELL CARCINOMA, Dose [Carcinogen]: 150 MG 2/WK FOR 6 WK", "value": "28/80 (35%), 5/40 (12%), 66%, p<0.01"}, {"measurement": "tumour outcome (control, treated, inhibition, significance)", "setting": "Carcinogen: N-METHYL-N-NITROSOUREA, 684-93-5, Dose [Inhibitor]: 2 MMOL/KG DIET DAILY STARTING 12 D AFTER CARCINOGEN TREATMENT THROUGH ABOUT 8 MO AFTER CARCINOGEN DOSE (STUDY DURATION:, Species: RAT, Strain/Sex: F344/MALE, Target Tissue: Type of Lesion: COLON: ADENOCARCINOMA, Dose [Carcinogen]: 2.5 MG 1/WK FOR 2 WK", "value": "5/39 (13%), 9/30 (30%), -131%, not significant"}]}
